Columns and labels:
[1] = tested on: PSC muscarinic receptors (mAChRs); settings: SOD1 mice, 15 mg/kg for 30 days; SOL muscle
Source text: Mice were then sacrificed, and muscles dissected with their innervation and placed in a physiological recording chamber. We performed Ca^2+ imaging on the SOL muscle to evaluate PSCs synaptic detection of neurotransmission elicited by motor nerve stimulation (50 Hz-5 sec) or local applications of the mAChRs agonist muscarine for the treated and the placebo groups.
Preparations of SOL muscles and their innervation were dissected and pinned in a Sylgard-coated experimental chamber filled with an oxygenated Ree's solution (in mM, all Sigma), as follows: 110 NaCl, 5 KCl, 1 MgCl2, 25 NaHCO3, 2 CaCl2, 11 glucose, 0.3 glutamic acid, 0.4 glutamine, 5 BES (N,N-Bis(2-hydroxyethyl)-2-aminoethanesulfonic acid sodium salt), 0.036 choline chloride, and 4.34×10^−7 cocarboxylase. Nerve-muscle preparations were incubated for 90 min (2×45 min) in a preoxygenated saline solution containing 10 μM fluo-4AM (Invitrogen) and 0.02% pluronic acid (Invitrogen). After the loading, nerve muscle preparations were constantly perfused with a warm (26-28° C.) oxygenated Ree's solution (95% O2, 5% CO2). Basel level of fluorescence was always set within the same range of arbitrary units, using the same software and hardware settings. Changes in fluorescence were measured over PSC soma and expressed as follows: % ΔF/F=(F-Frest)/Frest×100. Experiments were discarded when focus drift occurred. […]

PSC purinergic receptors = assay: Calcium imaging of PSCs: Ca2+ responses to local ATP application; assay type: in vivo, SOD1^G37R mice
SOD1^G37R mice [2] = assay: NMJ innervation status and NMJ repair signs by immunohistochemistry; assay type: in vivo, mouse
Procedure: We characterized EDL innervation status, a vulnerable fast-twitch muscle in ALS [3, 25-27], by classifying NMJs into fully innervated, partially innervated and denervated NMJs (FIG. 2A).
Neuromuscular innervation: Immunostaining was performed on EDL and SOL muscle previously described. Briefly, NMJs were labeled to visualise the axon terminal, Schwann cells and the post-synaptic receptors. The presynaptic element was labeled using an anti-synaptic vesicular protein 2 (SV2, 1:2000, Developmental Studies Hybridoma Bank) and an anti-neurofilament M, (NF-M, 1:1000, Rockland Immunochemicals Inc). PSCs and Schwann cells were labeled with anti-S100β antibody (1:4, Z0311, Dako) and post-synaptic receptors with Alexa594-conjugated-α-BTX (1.33 μg/ml, Molecular Probes, Fischer Scientific, Canada).
Observations and image acquisition were obtained using a Zeiss LSM 880 confocal microscope, with a 63× oil immersion objective (N.A. 1.4) or an Olympus FV 1000, with either a 63× oil immersion objective or a 20× water immersion objective (respectively N.A. 0.95 and 0.90). No image manipulations were performed after acquisition, except for brightness and contrast adjustments for figure presentation.

SOD1^G37R mice [3] = assay: EDL contractile force with muscle force transducer (force-frequency curve, contractile capacity ratio); assay type: in vivo, mouse
Source text: To investigate this, we used a musde force transducer to measure the force generated by EDL muscles elicited by stimulation of the motor nerve and/or by the direct muscle stimulation (FIG. 5A). With this system, stimulation of the motor nerve at various frequencies elicits muscle contraction through NMJ efficacy, reflecting the strength of contractile fibers associated with innervated NMJs only. Muscle stimulation, on the contrary, depolarizes all muscle fibers and reflect maximal twitch force of all the muscle, independent of the innervation status.
These values represent respectively 55% and 30% of the WT mean twitch force value (FIG. 5B; Dari N=8, Placebo N=8; p<0.01, Repeated Two-way ANOVA). Contractile forces generated differed between the two groups from 70 Hz to 300 Hz (FIG. 5B; Dari N=8, Placebo N=8; p<0.05, Two-way ANOVA, Bonferroni post hoc test). […] This is indicative of the preservation of the fast-twitch properties of the EDL (FIG. 5C; Dari N=8, Placebo N=8; p<0.05 et p<0.01, unpaired t-tests at each frequency).
We next determined the proportion of the muscle capacity that is used by the neuromuscular system upon nerve stimulation. This was expressed as the contractile capacity ratio calculated as follow: […]
The EDL and SOL nerve-muscle preparations were attached vertically to a fixed force transducer (model 402 A-500 mN, Aurora Scientific Inc.) using surgical threads. The preparations were attached at the tendons level to the transducer at one extremity and to an adaptable hook at the opposite extremity. A platinum reference electrode was then juxtaposed ot the muscle, positioned near an extremity of the muscle, close to a tendon. To stimulate the muscle, a second platinum electrode was juxtaposed at the other extremity of the muscle. To elicit muscle contractions from motor nerve and neuromuscular activity, the tibial nerve (SOL) or the deep peroneal nerve (EDL) motor nerve was suctioned into an electrode made of PE tubing and filled with Ringer's solution. […] Neuromuscular contractile basal force responses were elicited by a single supra-maximal square-wave of 500 mV, 0.1 ms pulse imposed on the motor nerve. Muscle contractile basal force responses were elicited by square pulse stimulation of 15 V, 1 ms. Optimal muscle length was determined by gradually stretching the muscle until maximal contractile force output was attained.
Force-frequency curve: Nerve and muscle stimulations were performed to generate a standard force-frequency curve. Alternate nerve and muscle stimulations were performed at various frequencies (5 Hz, 10 Hz, 20 Hz, 30 Hz, 40 Hz, 50 Hz, 60 Hz, 70 Hz, 80 Hz, 90 Hz, 100 Hz, 120 Hz, 140 Hz, 160 Hz, 180 Hz, 200 Hz, 250 Hz and 300 Hz) and the force generated monitored. There was a 2-minute rest period between each stimulation.

[4] = Darifenacin level in blood; assay type: in vivo; settings: SOD1 mice after oral treatment; levels consistent with pre-clinical data; data not shown
Procedure: We opted for the dosage at 10 mg/kg since the primary goal is to restore PSCs activity by dampening their muscarinic activity close to WT levels. […] These were both essential steps to pursue the study.

[5] = EDL, pre-onset treatment P400 until P480
[6] = EDL, treatment from disease onset (P450), 10 mg/kg orally, to P520
[7] = EDL, treatment from disease onset, 10 mg/kg orally

Compound: NC(=O)C(c1ccccc1)(c1ccccc1)[C@@H]1CCN(CCc2ccc3c(c2)CCO3)C1 [darifenacin]
- PSCs muscarinic activation [1]: greatly abolished
- PSC Ca2+ response to ATP, Darifenacin vs DMSO vs non-treated wild type (PSC purinergic receptors; SOD1G37R mice, 10 mg/kg orally for 5 days): no difference
- effect on purinergic signaling of PSCs (Ca2+ responses to local ATP) (PSC purinergic receptors; SOD1 mice, 10 or 15 mg/kg for 30 days): no effect
- animals in which glial process extensions were seen (SOD1^G37R mice [2]; [5]): 5 out of 6
- percentage of denervated NMJs (SOD1^G37R mice [2]; [5]): 15.7±5.9%
- percentage of partially innervated NMJs (SOD1^G37R mice [2]; [5]): 33.9±5.1%
- percentage of fully innervated NMJs (SOD1^G37R mice [2]; EDL, pre-onset treatment P400 until P480, N=6, n=145): 50.4±9.2%
- percentage of denervated NMJs (SOD1^G37R mice [2]; EDL, treatment from disease onset (P450), 10 mg/kg orally 5 days a week, to P520, N=7, n=293): 5.6±1.8%
- percentage of fully innervated NMJs (SOD1^G37R mice [2]; [6]): 70.1±4.2%
- percentage of partially innervated NMJs (SOD1^G37R mice [2]; [6]): 24.2±4.0%
- percentage of NMJs presenting nerve sprouting (SOD1^G37R mice [2]; [7]): 21.5±4.3%
- percentage of NMJs with glial processes alone (SOD1^G37R mice [2]; [7]): 2.2±1.8%
- percentage of NMJs with polyinnervation (SOD1^G37R mice [2]; [7]): 6.4±2.8
- NMJ repair signs (nerve sprouting, polyinnervation, glial processes) vs placebo (SOD1^G37R mice [2]; SOL and EDL, pre-onset treatment P400 until P480): no evidence of significant difference
- percentage of partially innervated NMJs (SOD1^G37R mice [2]; SOL, pre-onset treatment P400 until P480): 34.9±8.6%
- percentage of fully innervated NMJs (SOD1^G37R mice [2]; SOL, pre-onset treatment P400 until P480, N=4, n=118): 60.5±8.2%
- peak EDL muscle force, nerve or muscle stimulation, vs placebo (SOD1^G37R mice [3]; 5 Hz-300 Hz, pre-onset treatment P400 until P520, N=4): no difference
- EDL twitch force, nerve stimulation (SOD1^G37R mice [3]; force-frequency protocol 5 Hz-300 Hz, treatment from disease onset, N=8): 138.0±9.1 mN
- EDL twitch force as % of the WT mean twitch force value (SOD1^G37R mice [3]; nerve stimulation, treatment from disease onset): 55%
- animals discarded for early onset of forelimb paralysis, final stage at P490 (SOD1^G37R mice [3]; pre-onset treatment from P400): two
- darifenacin in the blood [4]: detected in the blood

From patent publication US20240374563A1, “ANTICHOLINERGIC COMPOUNDS FOR USE IN TREATING NEUROMUSCULAR DISORDERS” (UNIVERSITY OF MONTRÉAL, priority 2022, published 2024)
